Data published in US20260028354A1, “TETRAHYDRONAPHTHALENE DERIVATIVES AS ESTROGEN RECEPTOR DEGRADERS” (REGENT OF THE UNIVERSITY OF MICHIGAN, priority 2022, published 2026).
Like-named read-outs stand apart in the source and are kept apart here.

Experiments:
[1] = Cell growth assay (WST-8) for "B" compounds; type: cell-based; settings: T47D, read-out: Cell growth Inhibition in T47D cell line IC50
Procedure, shortened: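 Cells seeded at 1500/well overnight, then exposed to compounds for 4 days. 10% WST-8 added for 2.5 h at 37 °C and absorbance read at 450 nm. Growth given as absorbance relative to vehicle control, from three repeats.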

ER = ER (Homo sapiens (Human), UniProt P03372); assay: In-cell western blot analysis of ER for "B" compounds; type: cell-based; settings: 16 hours, read-out: ICW DC50
ER, sequence (P03372 whole entry): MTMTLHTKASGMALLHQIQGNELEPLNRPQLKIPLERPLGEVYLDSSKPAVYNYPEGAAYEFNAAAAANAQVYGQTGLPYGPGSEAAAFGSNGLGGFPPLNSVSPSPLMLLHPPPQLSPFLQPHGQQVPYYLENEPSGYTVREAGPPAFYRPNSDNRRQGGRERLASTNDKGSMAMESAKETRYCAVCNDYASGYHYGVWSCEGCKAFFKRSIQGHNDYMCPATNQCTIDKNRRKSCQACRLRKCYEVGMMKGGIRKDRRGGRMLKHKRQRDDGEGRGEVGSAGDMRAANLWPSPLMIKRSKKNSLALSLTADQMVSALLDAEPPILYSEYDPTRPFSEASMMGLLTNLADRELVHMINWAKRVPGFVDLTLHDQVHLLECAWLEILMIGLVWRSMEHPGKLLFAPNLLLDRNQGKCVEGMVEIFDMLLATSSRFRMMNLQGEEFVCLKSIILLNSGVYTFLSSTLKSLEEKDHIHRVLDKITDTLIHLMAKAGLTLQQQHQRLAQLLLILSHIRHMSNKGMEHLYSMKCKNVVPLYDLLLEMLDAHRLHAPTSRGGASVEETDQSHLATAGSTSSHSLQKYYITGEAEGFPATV
Procedure, shortened: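 In-cell western: fixed cells stained with primary antibodies (2 h, RT), then anti-rabbit-680 and anti-mouse-800 secondaries (1:1000, 1 h, RT), imaged on a LI-COR plate reader. Relative ER level in treated wells expressed against untreated and DMSO-treated wells set as 100%.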

| Structure (SMILES) | DC50 (ER) | IC50 ([1]; T47D cell line) | IC50 [1] |
| --- | --- | --- | --- |
| CN1C[C@@H]2CN(CC3COC4(CCN(c5ccc([C@@H]6c7ccc(O)cc7CC[C@@H]6c6ccccc6)cc5)CC4)C3)CCN2c2cc3c(cc21)C(=O)N(C1CCC(=O)NC1=O)C3 (stereo partly drawn) [Compound B234, 3-((4aS)-3-((8-(4-((1R,2S)-6-hydroxy-2-phenyl-1,2,3,4-tetrahydronaphthalen-1-yl)phenyl)-1-oxa-8-azaspiro[4.5]decan-3-yl)methyl)-6-methyl-8-oxo-2,3,4,4a,5,6,8,10-octahydropyrazino[1,2-a]pyrrolo[3,4-g]quinoxalin-9(1H)-yl)piperidine-2,6-dione] | > 100 nM | < 1 nM | – |
| O=C1CCC(N2Cc3c(ccc4c3OCC43CCN(CC4COC5(CN(c6ccc([C@@H]7c8ccc(O)cc8CC[C@@H]7c7ccccc7)cc6)C5)OC4)CC3)C2=O)C(=O)N1 (stereo partly drawn) [Compound B346, 3-(1′-((2-(4-((1R,2S)-6-hydroxy-2-phenyl-1,2,3,4-tetrahydronaphthalen-1-yl)phenyl)-5,9-dioxa-2-azaspiro[3.5]nonan-7-yl)methyl)-6-oxo-6,8-dihydro-2H,7H-spiro[furo[2,3-e]isoindole-3,4′-piperidin]-7-yl)piperidine-2,6-dione] | 10 to 100 nM | – | 1 to 10 nM |
| O=C1CC[C@H](N2Cc3c(ccc4c3OCC43CCN(CC4CCC5(CCN(c6ccc([C@@H]7c8ccc(O)cc8CC[C@@H]7c7ccccc7)cc6)CC5)OC4)CC3)C2=O)C(=O)N1 (stereo partly drawn) [Compound B366, (3S)-3-(1′-((9-(4-((1R,2S)-6-hydroxy-2-phenyl-1,2,3,4-tetrahydronaphthalen-1-yl)phenyl)-1-oxa-9-azaspiro[5.5]undecan-3-yl)methyl)-6-oxo-6,8-dihydro-2H,7H-spiro[furo[2,3-e]isoindole-3,4′-piperidin]-7-yl)piperidine-2,6-dione] | < 10 nM | – | < 1 nM |
| O=C1CCC(N2C(=O)c3cc4c(cc3C2=O)CN(CC2COC3(CCN(c5ccc([C@@H]6c7ccc(O)cc7CC[C@@H]6c6ccccc6)cc5)CC3)C2)C4)C(=O)N1 (stereo partly drawn) [Compound B235, 2-(2,6-dioxopiperidin-3-yl)-6-((8-(4-((1R,2S)-6-hydroxy-2-phenyl-1,2,3,4-tetrahydronaphthalen-1-yl)phenyl)-1-oxa-8-azaspiro[4.5]decan-3-yl)methyl)-6,7-dihydropyrrolo[3,4-f]isoindole-1,3(2H,5H)-dione] | > 100 nM | 1 to 10 nM | – |
| O=C1CCC(N2Cc3cc4c(cc3C2=O)OC[C@@H]2CN(CC(=O)N3CCC5(CC3)CCN(c3ccc([C@@H]6c7ccc8[nH]ncc8c7CC[C@@H]6c6ccccc6)cc3)CC5)CCN42)C(=O)N1 (stereo partly drawn) [Compound B389, 3-((S)-8-oxo-3-(2-oxo-2-(9-(4-((6R,7S)-7-phenyl-6,7,8,9-tetrahydro-3H-benzo[e]indazol-6-yl)phenyl)-3,9-diazaspiro[5.5]undecan-3-yl)ethyl)-1,2,3,4,4a,5,8,10-octahydro-9H-pyrazino[1′,2′:4,5][1,4]oxazino[2,3-f]isoindol-9-yl)piperidine-2,6-dione] | > 100 nM | > 10 nM | – |
| O=C1CCC(N2Cc3c(ccc4c3OC[C@H]3CN(CC5CC6(CCN(c7ccc([C@@H]8c9ccc(O)cc9CC[C@@H]8c8ccccc8)cc7)C6)C5)CCN43)C2=O)C(=O)N1 (stereo partly drawn) [Compound B232, 3-((R)-7-((6-(4-((1R,2S)-6-hydroxy-2-phenyl-1,2,3,4-tetrahydronaphthalen-1-yl)phenyl)-6-azaspiro[3.4]octan-2-yl)methyl)-1-oxo-1,3,5,5a,6,7,8,9-octahydro-2H-pyrazino[1′,2′:4,5][1,4]oxazino[2,3-e]isoindol-2-yl)piperidine-2,6-dione] | > 100 nM | 1 to 10 nM | – |
| O=C1CCC(N2Cc3cc4c(cc3C2=O)OC[C@@H]2C[C@H](NCC3CCN(c5ccc([C@@H]6c7ccc(O)cc7CC[C@@H]6c6ccccc6)cc5)CC3)CN42)C(=O)N1 (stereo partly drawn) [Compound B307, 3-((2S,3aS)-2-(((1-(4-((1R,2S)-6-hydroxy-2-phenyl-1,2,3,4-tetrahydronaphthalen-1-yl)phenyl)piperidin-4-yl)methyl)amino)-7-oxo-2,3,3a,4,7,9-hexahydro-1H,8H-pyrrolo[1′,2′:4,5][1,4]oxazino[2,3-f]isoindol-8-yl)piperidine-2,6-dione] | > 100 nM | 1 to 10 nM | – |
| O=C1CCC(N2Cc3c(ccc4c3OCC43CCN(CC(=O)OC4CCN(c5ccc([C@@H]6c7ccc(O)cc7CC[C@@H]6c6ccccc6)cc5)CC4)CC3)C2=O)C(=O)N1 (stereo partly drawn) [Compound B343, 1-(4-((1R,2S)-6-hydroxy-2-phenyl-1,2,3,4-tetrahydronaphthalen-1-yl)phenyl)piperidin-4-yl 2-(7-((S)-2,6-dioxopiperidin-3-yl)-6-oxo-7,8-dihydro-2H,6H-spiro[furo[2,3-c]isoindolc-3,4′-piperidin]-1′-yl)acetate] | > 100 nM | – | 1 to 10 nM |
| O=C1CCC(N2Cc3cc4c(cc3C2=O)OC[C@@H]2CN(CC(=O)N3CCN(c5ccc([C@@H]6c7ccc(O)cc7CC[C@@H]6c6ccccc6)cc5)CC3)CCN42)C(=O)N1 (stereo partly drawn) [Compound B145, 3-((S)-3-(2-(4-(4-((1R,2S)-6-hydroxy-2-phenyl-1,2,3,4-tetrahydronaphthalen-1-yl)phenyl)piperazin-1-yl)-2-oxoethyl)-8-oxo-1,2,3,4,4a,5,8,10-octahydro-9H-pyrazino[1′,2′:4,5][1,4]oxazino[2,3-f]isoindol-9-yl)piperidine-2,6-dione] | 10 to 100 nM | < 1 nM | – |
| O=C1CCC(Nc2ccc(C3CCN(CC4COC5(CN(c6ccc([C@@H]7c8ccc(O)cc8CC[C@@H]7c7ccccc7)cc6)C5)OC4)CC3)cc2)C(=O)N1 (stereo partly drawn) [Compound B339, 3-((4-(1-((2-(4-((1R,2S)-6-hydroxy-2-phenyl-1,2,3,4-tetrahydronaphthalen-1-yl)phenyl)-5,9-dioxa-2-azaspiro[3.5]nonan-7-yl)methyl)piperidin-4-yl)phenyl)amino)piperidine-2,6-dione] | > 100 nM | 1 to 10 nM | – |

Now from value to compound, other results behind:

| DC50 (ER) | Structure (SMILES) | IC50 ([1]; T47D cell line) | IC50 [1] |
| --- | --- | --- | --- |
| 10 to 100 nM | O=C1CC[C@H](NC(=O)c2ccc3c(n2)OC[C@H]2CN(CC4COC5(CCN(c6ccc([C@@H]7c8ccc(O)cc8CC[C@@H]7c7ccccc7)cc6)CC5)OC4)CCN32)C(=O)N1 [Compound B336, (R)-N-((S)-2,6-dioxopiperidin-3-yl)-3-((9-(4-((1R,2S)-6-hydroxy-2-phenyl-1,2,3,4-tetrahydronaphthalen-1-yl)phenyl)-1,5-dioxa-9-azaspiro[5.5]undecan-3-yl)methyl)-1,2,3,4,4a,5-hexahydropyrazino[1,2-d]pyrido[2,3-b][1,4]oxazine-8-carboxamide] | 1 to 10 nM | – |
| < 10 nM | O=C1CCC(N2Cc3cc4c(cc3C2=O)OC[C@@H]2CN(C3CN(C5CCN(c6ccc([C@@H]7c8ccc(O)cc8CC[C@@H]7c7ccccc7)cc6)CC5)C3)CCN42)C(=O)N1 (stereo partly drawn) [Compound B167, 3-((S)-3-(1-(1-(4-((1R,2S)-6-hydroxy-2-phenyl-1,2,3,4-tetrahydronaphthalen-1-yl)phenyl)piperidin-4-yl)azetidin-3-yl)-8-oxo-1,2,3,4,4a,5,8,10-octahydro-9H-pyrazino[1′,2′:4,5][1,4]oxazino[2,3-f]isoindol-9-yl)piperidine-2,6-dione] | < 1 nM | – |
| < 10 nM | O=C1CC[C@H](N2Cc3cc4c(cc3C2=O)OC[C@@H]2CN(C[C@@H]3COC5(CCN(c6ccc([C@@H]7c8ccc(O)cc8CC[C@@H]7c7ccccc7)cc6)CC5)C3)CCN42)C(=O)N1 [Compound B399, (S)-3-((S)-3-(((R)-8-(4-((1R,2S)-6-hydroxy-2-phenyl-1,2,3,4-tetrahydronaphthalen-1-yl)phenyl)-1-oxa-8-azaspiro[4.5]decan-3-yl)methyl)-8-oxo-1,2,3,4,4a,5,8,10-octahydro-9H-pyrazino[1′,2′:4,5][1,4]oxazino[2,3-f]isoindol-9-yl)piperidine-2,6-dione] | < 1 nM | – |
| < 10 nM | O=C1CCC(N2Cc3cc4c(cc3C2=O)OC[C@@H]2CN(CC(=O)N3CC(Nc5ccc([C@@H]6c7ccc(O)cc7CC[C@@H]6c6ccccc6)cc5)C3)CCN42)C(=O)N1 (stereo partly drawn) [Compound B207, 3-((S)-3-(2-(3-((4-((1R,2S)-6-hydroxy-2-phenyl-1,2,3,4-tetrahydronaphthalen-1-yl)phenyl)amino)azetidin-1-yl)-2-oxoethyl)-8-oxo-1,2,3,4,4a,5,8,10-octahydro-9H-pyrazino[1′,2′:4,5][1,4]oxazino[2,3-f]isoindol-9-yl)piperidine-2,6-dione] | < 1 nM | – |
| 10 to 100 nM | O=C1CCC(N2Cc3cc4c(cc3C2=O)OC[C@@H]2CN(CC3COC5(C3)CN(c3ccc([C@@H]6c7ccc(O)cc7CC[C@@H]6c6ccccc6)cc3)C5)CCN42)C(=O)N1 (stereo partly drawn) [Compound B231, 3-((4aS)-3-((2-(4-((1R,2S)-6-hydroxy-2-phenyl-1,2,3,4-tetrahydronaphthalen-1-yl)phenyl)-5-oxa-2-azaspiro[3.4]octan-7-yl)methyl)-8-oxo-1,2,3,4,4a,5,8,10-octahydro-9H-pyrazino[1′,2′:4,5][1,4]oxazino[2,3-f]isoindol-9-yl)piperidine-2,6-dione] | < 1 nM | – |
| < 10 nM | O=C1CCC(N2Cc3cc4c(cc3C2=O)OC[C@@H]2CN(C(=O)CN3CCC5(C3)CN(c3ccc([C@@H]6c7ccc(O)cc7CC[C@@H]6c6ccccc6)cc3)C5)CCN42)C(=O)N1 (stereo partly drawn) [Compound B154, 3-((S)-3-(2-(2-(4-((1R,2S)-6-hydroxy-2-phenyl-1,2,3,4-tetrahydronaphthalen-1-yl)phenyl)-2,6-diazaspiro[3.4]octan-6-yl)acetyl)-8-oxo-1,2,3,4,4a,5,8,10-octahydro-9H-pyrazino[1′,2′:4,5][1,4]oxazino[2,3-f]isoindol-9-yl)piperidine-2,6-dione] | < 1 nM | – |
